Reference: patent US5292740A, “Sulfonamides” (Hoffmann-La Roche Inc., priority 1991, dated 1994)

How the values were obtained:
[1] = test system: rats; test: Inhibitory activity on vasoconstriction in vivo in rats (renal ischaemia, renal perfusion by Doppler); set-up: species or system rat; conditions: 45 minutes renal ischaemia; compound given 10 minutes before, 5 mg/kg i.a. or 10 mg/kg i.v.; control tests 43±4% reduction vs preischaemic value
Experimental: III. The inhibitory activity of the compounds of formula I on vasoconstriction can be observed in vivo in rats in the test procedure described hereinafter:
Rats were anaesthetized with Na thiobutabarbital (100 mg/kg i.p.). A catheter for measuring the systemic arterial blood pressure was placed through the femoral artery and a catheter was placed in the vena cava via the femoral vein for injection of the test compounds. A Doppler sonde was placed around the left renal artery and attached to a Doppler measuring apparatus. A renal ischaemia was produced by pinching off the left renal artery at its point of exit for 45 minutes. 10 minutes prior to the induction of the ischaemia the test compounds were administered intraarterially (i.a.) in dosages of 5 mg/kg or intravenously (i.v.) in dosages of 10 mg/kg. In control tests, the renal perfusion was reduced by 43±4% compared to the preischaemic value.

[2] = biological target: endothelin receptors; test: Inhibition of endothelin binding to human placenta membranes; conditions: 125I-endothelin 20 pM, 20° C. for 2 hours or 4° C. for 24 hours, read-out: IC50 (concentration required to inhibit 50% of the specific binding of 125I-endothelin)
Experimental: I: Inhibition of endothelin binding to human placenta membranes (see. Life Sci 44:1429 (1989))
Human placenta is homogenized in 5 mM Tris buffer, pH 7.4, which contains 1 mM MgCl2 and 250 mM sucrose. The homogenizate is centrifuged at 4° C. and 3000 g for 15 minutes, the supernatant containing the plasma membrane fraction is centrifuged with 72000 g for 30 minutes and the precipitate is washed with 75 mM Tris buffer, pH 7.4, which contains 25 mM MgCl2. Thereafter, precipitate obtained from, in each case, 10 g of original tissue is suspended in 1 ml of 75 mM Tris buffer, pH 7.4, containing 25 mM MgCl2 and 250 mM sucrose, and freeze-dried at -20° C. in 1 ml aliquots.
For the binding assay, the freeze-dried membrane preparations are thawed and, after centrifugation at 20° C. and 25000 g for 10 minutes, re-suspended in assay buffer (50 mM Tris buffer, pH 7.4, containing 25 mM MnCl2, 1 mM EDTA and 0.5% of bovine serum albumin). […] of this membrane suspension containing […] of protein are incubated with […] of ^125 I-endothelin (specific activity 2200 Ci/mMol) in assay buffer (25000 cpm, final concentration 20 pM) and […] of assay buffer containing varying concentrations of test compound. The incubation is carried out at 20° C. for 2 hours or at 4° C. for 24 hours. The separation of free and membrane-bound radioligands is carried out by filtration over a glass fibre filter.
The inhibitory activity of compounds of formula I determined in this test procedure is given in Table 1 as the IC50, that is, as the concentration […] which is required to inhibit 50% of the specific binding of ^125 I-endothelin.

[3] = test system: isolated rat aorta rings (endothelin-induced contractions); test: Inhibition of endothelin-induced contractions in isolated rat aorta rings; format: cell-based, rat (adult Wistar-Kyoto); conditions: in the absence of test compounds; read-out: EC50 of endothelin (concentration required for a half-maximum contraction)
Experimental: II. Inhibition of endothelin-induced contractions in isolated rat aorta rings
Rings with a length of 5 mm were cut out from the thorax aorta of adult Wistar-Kyoto rats. The endothelium was removed by lightly rubbing the internal surface. Each ring was immersed at 37° C. in 10 ml of Krebs-Henseleit solution in an isolated bath while gassing with 95% O2 and 5% CO2. The isometric stretching of the rings was measured. The rings were stretched to a pretension of 3 g. After incubation for 10 minutes with the test compound or vehicle, cumulative dosages of endothelin-1 were added. The activity of the test compound was determined by calculating the dosage ratios, that is, the shift to the right (shift to higher values) of the EC50 of endothelin induced by […] of test compound, with EC50 denoting the endothelin concentration required for a half-maximum contraction. […] The EC50 of endothelin in the absence of test compounds is 0.3 nM.

Compound | IC50 [2] | % Decrease in renal perfusion [1] | EC50 [3]
COc1ccccc1Oc1c(NS(=O)(=O)c2ccc(C(C)C)cc2)ncnc1OCCO [Example 2, N-[6-(hydroxyethoxy)-5-(o-methoxyphenoxy)-4-pyrimidinyl]-p-isopropylbenzenesulfonamide] | 0.1 µM |  | 
COc1ccccc1Oc1c(NS(=O)(=O)c2ccc(C(C)C)cc2)nc(-c2ccccc2)nc1OCCO [Example 12, N-[6-(2-hydroxyethoxy)-5-(o-methoxyphenoxy)-2-phenyl-4-pyrimidinyl]-p-isopropylbenzenesulfonamide] | 0.125 µM |  | 
COc1ccccc1Oc1c(NS(=O)(=O)c2ccc(C(C)C)cc2)nc(C)nc1OCCO [Example 24, N-[6-(2-hydroxyethoxy)-5-(o-methoxyphenoxy)-2-methyl-4-pyrimidinyl]-p-isopropylbenzenesulfonamide] | 0.073 µM |  | 
COc1ccccc1Oc1c(NS(=O)(=O)c2ccc(C(C)C)cc2)nc(C(F)(F)F)nc1OCCO [Example 25] | 0.05 µM |  | 
endothelin: endothelin-1, agonist added in cumulative dosages to contract rat aorta rings |  |  | 0.0003 µM

Second part, led by results:

IC50 [2] | Compound | % Decrease in renal perfusion [1] | EC50 [3]
0.115 µM | COc1ccccc1Oc1c(NS(=O)(=O)c2ccc(C(C)(C)C)cc2)ncnc1OCCO [Example 1, p-t-butyl-N-[6-(2-hydroxyethoxy)-5-(o-methoxyphenoxy)-4-pyrimidinyl]benzenesulfonamide] | 13.4 ± 5.2% | 
0.2 µM | COc1cccc(Oc2c(NS(=O)(=O)c3ccc(C(C)(C)C)cc3)ncnc2OCCO)c1 [Example 6, p-t-butyl-N-[6-(2-hydroxyethoxy)-5-(m-methoxyphenoxy)-4-pyrimidinyl]benzenesulphonamide] | 11.7 ± 4.7% | 
0.099 µM | CC(C)(C)c1ccc(S(=O)(=O)Nc2ncnc(OCCO)c2Oc2ccc3c(c2)OCO3)cc1 [Example 27, N-[5-(1,3-benzodioxol-5-yloxy)-6-(2-hydroxyethoxy)-4-pyrimidinyl]-p-tert-butylbenzenesulfonamide] |  | 
